According to EP1965829B1, “ALTERNATIVE OXIDASE AND USES THEREOF” (Tampereen yliopisto, priority 2005, dated 2007):

What was measured:
Drosophila mitochondria = assay type: biochemical, Drosophila melanogaster
Flp-In™ T-REx™-293 cells [1] = test: Succinate oxidation by digitonin-permeabilized cells, Clark oxygen electrode; assay type: cell-based, human; conditions: AOX-induced cells
Flp-In™ T-REx™-293 cells [2] = test: Respiration of digitonin-permeabilized transduced or transfected cells; assay type: cell-based, human; conditions: 10 µM n-propyl gallate

CCCOC(=O)c1cc(O)c(O)c(O)c1 [n-propyl gallate]
effect of AOX inhibitors on respiration (Drosophila mitochondria): only a small effect
sensitivity of residual cyanide-insensitive respiratory activity to AOX inhibitors (Drosophila mitochondria): sensitive
inhibition of cyanide-resistant succinate oxidation (Flp-In™ T-REx™-293 cells [1]; 100 µM propyl gallate added after cyanide): fully inhibited
inhibition of oxygen uptake (Flp-In™ T-REx™-293 cells [1]; propyl gallate in the absence of cyanide): 5%
inhibition of residual respiration in the presence of cyanide (Flp-In™ T-REx™-293 cells [2]; pWPI-AOX-transduced cells): completely inhibited
inhibition of respiration in the presence of cyanide (Flp-In™ T-REx™-293 cells [2]; pcDNA5-AOX-transfected cells): almost completely inhibited
